Values after ≈ are worked out from the molar mass of the structure shown.

What all share (assay type): cell-based
Test [1] concerns A431 (vulva epidermoid origin) tumor cell line. In words: Antineoplastic activity, tumor cell growth inhibition (sulforhodamine B), A431. The following applies: 48 hours; for Antineoplastic Activity IC50: A431 cells. An excerpt:
(§1) Antineoplastic activity for the compounds of this invention was confirmed by evaluating the antineoplastic activity of representative compounds of this invention (Examples 1-5) against six tumor cell lines in vitro. Briefly, tumor cells from six cell lines were placed in wells of a 96 well microtiter plate. The following tumor cell lines were used: 3T3 (ovarian), 3T3/H2N (ovarian—resistant to cis-platin), A431 (vulva epidermoid origin), SW620 (colon), SKBR3 (breast), and MDA-435 (breast). The tumors cells were grown in the presence of serial dilutions of the compound to be evaluated for 48 hours, and cell growth determined using a colorimetric procedure (sulforhrodamine B). The inhibition of growth was calculated compared to the number of cells at the time of test compound addition.

Test [2] has as its system SW620 (colon) tumor cell line. In words: Antineoplastic activity, tumor cell growth inhibition (sulforhodamine B), SW620. As to conditions: 48 hours; for Antineoplastic Activity IC50: SW620 cells.
From the text: as §1

In test [3] the test system is 3T3/H2N (ovarian—resistant to cis-platin) tumor cell line. In words: Antineoplastic activity, tumor cell growth inhibition (sulforhodamine B), 3T3/H2N. As to conditions: 3T3/H2N cells, 48 hours.
From the text: as §1

Test [4] has as its system SKBR3 (breast) tumor cell line. In words: Antineoplastic activity, tumor cell growth inhibition (sulforhodamine B), SKBR3. As to conditions: 48 hours; for Antineoplastic Activity IC50: SKBR3 cells.
From the text: as §1

For test [5], the system named is 3T3 (ovarian) tumor cell line. In words: Antineoplastic activity, tumor cell growth inhibition (sulforhodamine B), 3T3. As to conditions: 48 hours; for Antineoplastic Activity IC50: 3T3 cells.
From the text: as §1

Test [6] has as its system MDA-435 (breast) tumor cell line. In words: Antineoplastic activity, tumor cell growth inhibition (sulforhodamine B), MDA-435. The following applies: MDA435 cells, 48 hours.
From the text: as §1

The subject of test [7] is SH-SY5Y cells. Description: Neurite outgrowth (neuroregeneration) test in SH-SY5Y cells. The following applies: aphidicolin 5 days, mean ± SEM. An excerpt:
The neuroregeneration activity for the compounds of this invention was confirmed in a standard pharmacological test procedure by evaluating rapamycin dialdehyde (Example 1) and rapamycin 29-enol (Example 2), as representative compounds of this invention, against SH-SY5Y cells in vitro [Gold et al., Exp Neurol 147: 269-278, 1997]. Briefly, SH-SY5Y cells were placed in 6-well plate treated with aphidicolin for 5 days followed by the test compounds using 6-well plates. For controls, wells were untreated, or treated with nerve growth factor (NGF) alone. Test wells were treated with NGF plus Example 1 and Example 2, or rapamycin. Cells were photographed at 168 hours. Analysis of neuritic lengths was performed on photographic prints using a Houston Instrument HI-PAD digitizing tablet connected to an IBM XT computer with appropriate software (Bioquant IV, R&M Biometrics, Nashville, Tenn.). Mean values for axonal areas were compared using by ANOVA (STATVIEW, Abacus Concepts, Inc., Berkeley, Calif.). The following table summarizes the results that were obtained.

Turning to “42-O-(2-Hydroxy)Ethyl Rapamycin 29-enol [Example V]”, the “Antineoplastic Activity IC50” value in test [1] is over 5 µg/mL; in test [2] it was over 5 µg/mL; in test [3] it was 4.96 µg/mL; in test [4] it was 2.69 µg/mL; in test [5] it was over 5 µg/mL; in test [6] it was over 5 µg/mL.
Consider “42-O-(2-Hydroxy)Ethyl Rapamycin Dialdehyde [IV]”, for which the “Antineoplastic Activity IC50” value in test [1] came to 2.64 µg/mL; in test [2], 3.04 µg/mL; in test [3], 0.72 µg/mL; in test [4] it was 0.36 µg/mL; in test [5] it was 1.5 µg/mL; in test [6], 1.1 µg/mL.
As usually defined, the IC50 is the concentration that inhibits the measured activity by half. A higher IC50 goes with weaker potency in that assay. In the case of `CO[C@@H](C[C@@H]1CC[C@@H](C)[C@](O)(C(=O)C(=O)N2CCCC[C@H]2C(=O)OC(CC(=O)[C@H](C)/C=C(\C)[C@@H](O)[C@@H](OC)C(=O)[C@H](C)C[C@H](C)/C=C/C=O)[C@H](C)C[C@@H]2CC[C@@H](O)[C@H](OC)C2)O1)/C(C)=C/C=O` (stereo partly drawn) [Example I, Rapamycin Dialdehyde], the IC50 in test [1] (Homo sapiens, A-431, A431 cells) amounted to 0.91 µg/mL (≈ 0.962 µM); in test [2] (Homo sapiens, SW-620, SW620 cells) it was 1.41 µg/mL (≈ 1.49 µM); in test [3], 0.68 µg/mL (≈ 0.719 µM); in test [4] (Homo sapiens, SK-BR-3, SKBR3 cells) it was 0.52 µg/mL (≈ 0.55 µM); in test [5] (Mus musculus, NIH3T3, 3T3 cells), 0.72 µg/mL (≈ 0.761 µM); in test [6], 1.23 µg/mL (≈ 1.3 µM). The “Mean Neurite Length after 168 h” value in test [7] (test compound plus NGF) is 229.8 ± 9.5 (n = 141) μm.
Consider “NGF: nerve growth factor, used alone as control and together with test compounds”, for which, in test [7] (NGF alone), the “Mean Neurite Length after 168 h” value is on record as 196.5 ± 7.7 (n = 112) μm.
For Rapamycin 29-Enol [Example II], the “Antineoplastic Activity IC50” value in test [1], in test [2], in test [3], in test [4], in test [5] and in test [6] was over 5 µg/mL in each case. Besides, the “Mean Neurite Length after 168 h” value in test [7] (test compound plus NGF) is recorded as 239.7 ± 10.0 (n = 155) μm.
